Data on 16 compounds can be found in article PMC7736042, “Quinazolinones as Competitive Inhibitors of Carbonic Anhydrase-II (Human and Bovine): Synthesis, in-vitro, in-silico, Selectivity, and Kinetics Studies” (Frontiers in Chemistry, 2020).

Data set [1] has as its target bovine carbonic anhydrase-II (bCA-II) (Bos taurus, UniProt P00921). Put plainly: In-vitro bCA-II inhibition, spectrophotometric p-nitrophenyl acetate assay. The format is biochemical. As to conditions: for IC50 / IC50 ± SEM: NA = Not active. As for the experimental part:
Each inhibitory well-consisted of 140 μL of HEPES-Tris buffer solution, 20 μL of bCA-II enzyme solution (0.1 mg/mL HEPES-Tris buffer), and 20 μL of test compound in HPLC grade DMSO (maintain 10% of the final concentration). […] Substrate p-nitrophenyl acetate (p-NPA) (0.7 mM) was prepared in HPLC grade methanol and the reaction was started by adding 20 μL to a well in a 96-well-plate. The amount of product formed was measured for 30 min continuously at 1 min intervals at 400 nm in a 96-well-plate using xMARK microplate spectrophotometer, Bio-Rad (USA). The activity of the controlled compound was taken as 100%. All experiments were carried out in triplicates of each used concentration, and results are represented as a mean of the triplicate.

The target in data set [2] is human carbonic anhydrase-II (hCA-II) (Homo sapiens, UniProt P00918). Put plainly: In-vitro hCA-II inhibition, spectrophotometric p-nitrophenyl acetate assay. The data set is classed as biochemical. As to conditions: for IC50: NA = Not active; for selectivity hCA-II versus bCA-II: from in-vitro results on bCA-II and hCA-II.
The target in a further data set is bCA-II (Bos taurus, UniProt P00921). Put plainly: Kinetics study on bCA-II (Lineweaver-Burk, secondary replot, Dixon plot). The data set is classed as biochemical, bovine. As for the experimental part: (§1) To investigate the mechanism of action of these compounds, kinetics studies were performed. The kinetics studies were used to discover the type of inhibition and dissociation constant (Ki). […] From the kinetics studies, it was deduced that the compound 4d is a competitive inhibitor for both bCA-II and hCA-II. The Lineweaver-Burk plots were used for determination of the type of inhibition, in which the reciprocal of substrate concentrations was plotted against the reciprocal of the rate of the reaction to monitor the effect of the inhibitor on both Km and Vmax. […] In competitive inhibition, the Km of enzyme increased, while Vmax are not affected.
Figure 2 The mode of inhibition of bCA-II by compound 4d. […] (B) Secondary re-plot of Lineweaver–Burk plot between the slopes of each line on Lineweaver–Burk plot vs. different concentrations of compound 4d. (C) Dixon plot of reciprocal rate of reaction (velocities) vs. different concentrations of compound 4d.
(§2) The Ki values of compounds 4d for both enzymes bCA-II and hCA-II were deduced by secondary replots of Lineweaver-Burk plots by plotting the slope of each line in the Lineweaver-Burk plots against different concentrations of compound 4d (Figures 2B, 3B). The Ki values were confirmed by Dixon plot after plotting the reciprocal of the rate of reaction against different concentrations of compound 4d (Figures 2C, 3C).

The target of another data set is hCA-II (Homo sapiens, UniProt P00918). Put plainly: Kinetics study on hCA-II (Lineweaver-Burk, secondary replot, Dixon plot). The data set is classed as biochemical. On the procedure:
as §1
Figure 3 The mode of inhibition of hCA-II by compound 4d. […] (B) Secondary re-plot of Lineweaver–Burk plot between the slopes of each line on Lineweaver–Burk plot vs. different concentrations of compound 4d. (C) Dixon plot of reciprocal rate of reaction (velocities) vs. different concentrations of compound 4d.
as §2

Where [3] appears, read: substrate p-nitrophenyl acetate.

Sequence of bovine carbonic anhydrase-II (bCA-II) (P00921 whole entry): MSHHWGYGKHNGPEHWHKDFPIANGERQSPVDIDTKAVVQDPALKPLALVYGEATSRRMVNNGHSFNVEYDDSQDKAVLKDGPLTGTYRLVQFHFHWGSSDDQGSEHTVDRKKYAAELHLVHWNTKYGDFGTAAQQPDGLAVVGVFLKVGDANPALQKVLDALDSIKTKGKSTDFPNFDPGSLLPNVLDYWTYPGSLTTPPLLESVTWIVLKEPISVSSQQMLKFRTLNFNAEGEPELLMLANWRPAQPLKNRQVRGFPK
Sequence of bCA-II (P00921 whole entry): as above

As to “3-Amino-2-(Napthalen-1-yl) Quinazolin-4(3H)-one [Compound 4b]”, the “% Inhibition (0.5 mM)” value is on record as 83.6% in data set [1] (0.5 mM) and 38.1% in data set [2] (hCA-II, 0.5 mM). Moreover, it took 67.3 ± 0.42 µM to reach half-maximal inhibition in data set [1] (IC50).

`Nn1c(-c2ccccc2)nc2ccccc2c1=O` [Compound 4a, 3-Amino-2-Phenylquinazolin-4(3H)-one] registered a melting point of 200 to 202 °C. The inhibition at 500 µM in data set [1] (0.5 mM) is 75.2%. Moreover, in data set [1], half-maximal inhibition (IC50) required 53.6 ± 0.85 µM. In data set [2] (hCA-II, 0.5 mM), this compound returned an inhibition at 500 µM of 75.2%. The IC50 in data set [2] (hCA-II) stood at 59.6 ± 1.03 µM.

For the compound `Nn1c(-c2ccccc2[N+](=O)[O-])nc2ccccc2c1=O` [Compound 4c, 3-Amino-2-(2-Nitrophenyl) Quinazolin-4(3H)-one], the melting point lay within 180 to 182 °C. The same compound came in with an inhibition at 500 µM in data set [1] (0.5 mM) of 80.5%. This compound also registered an IC50 in data set [1] of 11.7 ± 0.36 µM. The compound also came in with an inhibition at 500 µM in data set [2] (hCA-II, 0.5 mM) of 88.5%. Half-maximal inhibition in data set [2] (hCA-II) (IC50) was put at 21.1 ± 1.36 µM.

For the compound `Nn1c(-c2cccc([N+](=O)[O-])c2)nc2ccccc2c1=O` [Compound 4d, 3-Amino-2-(3-Nitrophenyl) Quinazolin-4(3H)-one], the melting point lay in the range of 206 to 208 °C. This compound registered an inhibition at 500 µM in data set [1] (0.5 mM) of 92.9%. Besides, 19.7 ± 1.02 µM corresponded to half-maximal inhibition in data set [1] (IC50). Further, on bCA-II (Lineweaver-Burk plot), the mode of inhibition result is recorded as “competitive”. The compound also came in with a Ki on bCA-II (setting [3]) of 13 ± 0.013 µM. In data set [2] (hCA-II, 0.5 mM), this compound came in with an inhibition at 500 µM of 94.2%. Further, the IC50 in data set [2] (hCA-II) turned out to be 21.5 ± 0.52 µM. For the same compound, the mode of inhibition result at hCA-II (Lineweaver-Burk plot) is given as “competitive”. For the same compound, on hCA-II (setting [3]), the Ki came to 14.25 ± 0.017 µM.

`Nn1c(-c2ccc([N+](=O)[O-])cc2)nc2ccccc2c1=O` [Compound 4e, 3-Amino-2-(4-nitrophenyl) quinazolin-4(3H)-one] yielded a melting point of 224 to 225 °C. Moreover, the inhibition at 500 µM in data set [1] (0.5 mM) was found to be 80.7%. This compound gave an IC50 in data set [1] of 9.1 ± 0.21 µM. In data set [2] (hCA-II, 0.5 mM), the inhibition at 500 µM is 92.7%. In data set [2] (hCA-II), this compound registered an IC50 of 39.9 ± 2.21 µM.

In turn, `Nn1c(-c2ccccc2Br)nc2ccccc2c1=O` [Compound 4f, 3-Amino-2-(2-Bromophenyl) Quinazolin-4(3H)-one] gave a melting point of 204 to 206 °C. In data set [1] (0.5 mM), this compound displayed an inhibition at 500 µM of 88.9%. This compound returned an IC50 in data set [1] of 17.9 ± 0.56 µM. The inhibition at 500 µM in data set [2] (hCA-II, 0.5 mM) is 98.9%. For the same compound, it took 43.5 ± 1.51 µM to reach half-maximal inhibition in data set [2] (hCA-II) (IC50).

`Nn1c(-c2ccc(Br)cc2)nc2ccccc2c1=O` [Compound 4g, 3-Amino-2-(4-Bromophenyl) Quinazolin-4(3H)-one] returned a melting point of 184 to 185 °C. The compound further showed an inhibition at 500 µM in data set [1] (0.5 mM) of 85.3%. Further, the IC50 in data set [1] worked out at 33.6 ± 0.22 µM. For the same compound, the “selectivity hCA-II versus bCA-II” value in data set [2] is on record as “more selective inhibitors for hCA-II”. The inhibition at 500 µM in data set [2] (hCA-II, 0.5 mM) came out at 85.3%. The same compound displayed an IC50 in data set [2] (hCA-II) of 14 ± 0.6 µM.

`Cc1ccc(-c2nc3ccccc3c(=O)n2N)cc1` [Compound 4h, 3-Amino-2-(4-Methylphenyl) Quinazolin-4(3H)-one] displayed a melting point of 294 to 296 °C. The inhibition at 500 µM in data set [1] (0.5 mM) came out at 92.4%. In data set [1], the midpoint of inhibition, the IC50, lay at 38 ± 0.62 µM. Besides, testing at 500 µM in data set [2] (hCA-II, 0.5 mM) gave an inhibition of 92.4%. The compound further yielded an IC50 in data set [2] (hCA-II) of 53 ± 2.12 µM.

`Nn1c(-c2ccccc2F)nc2ccccc2c1=O` [Compound 4i, 3-Amino-2-(2-Fluorophenyl) Quinazolin-4(3H)-one] yielded a melting point of 169 to 170 °C. In addition, the inhibition at 500 µM in data set [1] (0.5 mM) amounted to 17.6%. The “IC50 ± SEM” value in data set [1] was “inactive”. Besides, the inhibition at 500 µM in data set [2] (hCA-II, 0.5 mM) is 27.8%.

`Nn1c(-c2cccc(F)c2)nc2ccccc2c1=O` [Compound 4j, 3-Amino-2-(3-Fluorophenyl) Quinazolin-4(3H)-one]: the melting point lay within 164 to 165 °C. Besides, at 500 µM the inhibition in data set [1] (0.5 mM) was 78.6%. For the same compound, in data set [1], the IC50 worked out at 46.6 ± 0.39 µM. Besides, testing at 500 µM in data set [2] (hCA-II, 0.5 mM) gave an inhibition of 28.1%.

The compound `Nn1c(-c2ccc(F)cc2)nc2ccccc2c1=O` [Compound 4k, 3-Amino-2-(4-Fluorophenyl) Quinazolin-4(3H)-one] yielded a melting point of 176 to 178 °C. In data set [1] (0.5 mM), this compound registered an inhibition at 500 µM of 76.3%. In data set [1], the IC50 came out at 18.3 ± 0.51 µM. The compound further showed an inhibition at 500 µM in data set [2] (hCA-II, 0.5 mM) of 36.2%.

The compound `Nn1c(-c2ccccc2Cl)nc2ccccc2c1=O` [Compound 4l, 3-Amino-2-(2-Chlorophenyl) Quinazolin-4(3H)-one] showed a melting point of 160 to 162 °C. Further, in data set [1] (0.5 mM), the inhibition at 500 µM worked out at 78.2%. Further, 10.7 ± 0.82 µM corresponded to half-maximal inhibition in data set [1] (IC50). In data set [2] (hCA-II, 0.5 mM), this compound displayed an inhibition at 500 µM of 28.7%.

As for `Nn1c(-c2cccc(Cl)c2)nc2ccccc2c1=O` [Compound 4m, 3-Amino-2-(3-Chlorophenyl) Quinazolin-4(3H)-one], the melting point lay in the range of 144 to 145 °C. Moreover, testing at 500 µM in data set [1] (0.5 mM) gave an inhibition of 60%. The same compound registered an IC50 in data set [1] of 8.9 ± 0.31 µM. In addition, testing at 500 µM in data set [2] (hCA-II, 0.5 mM) gave an inhibition of 30.5%.

`Nn1c(-c2ccc(Cl)cc2)nc2ccccc2c1=O` [Compound 4n, 3-Amino-2-(4-Chlorophenyl) Quinazolin-4(3H)-one] registered a melting point of 165 to 166 °C. This compound had an inhibition at 500 µM in data set [1] (0.5 mM) of 54.2%. In data set [1], this compound registered an IC50 of 28.2 ± 0.01 µM. This compound also yielded an inhibition at 500 µM in data set [2] (hCA-II, 0.5 mM) of 24.3%.

Take `COc1ccc(-c2nc3ccccc3c(=O)n2N)cc1` [Compound 4o, 3-Amino-2-(4-Methoxyphenyl) Quinazolin-4(3H)-one]: the inhibition at 500 µM in data set [1] (0.5 mM) was 19.9%; in data set [2] (hCA-II, 0.5 mM), 89.4%. The “IC50 ± SEM” value in data set [1] was “inactive”. Moreover, in data set [2], the “selectivity hCA-II versus bCA-II” value is “more selective inhibitors for hCA-II”. The IC50 in data set [2] (hCA-II) was 22 ± 0.4 µM.

Consider `COc1cc(-c2nc3ccccc3c(=O)n2N)cc(OC)c1OC` [Compound 4p, 3-Amino-2-(3,4,5-Trimethoxyphenyl) Quinazolin-4(3H)-one], for which the inhibition at 500 µM in data set [1] (0.5 mM) turned out to be 87.3%; in data set [2] (hCA-II, 0.5 mM), 27.4%. Moreover, in data set [1], the IC50 is 26.8 ± 0.23 µM.
